The text below walks through data of patent publication US20070259875A1, “Triaryl substituted imidazole derivatives and taste-inhibiting uses thereof” (priority 2006, published 2007).

As usually defined, the melting point is the temperature of the solid-liquid transition.

The target of one data set is T1, human TRPM5 (Homo sapiens, UniProt Q9NZQ8).
T1 construct: expressed in transfected cells
T1 sequence (Q9NZQ8 1-1165): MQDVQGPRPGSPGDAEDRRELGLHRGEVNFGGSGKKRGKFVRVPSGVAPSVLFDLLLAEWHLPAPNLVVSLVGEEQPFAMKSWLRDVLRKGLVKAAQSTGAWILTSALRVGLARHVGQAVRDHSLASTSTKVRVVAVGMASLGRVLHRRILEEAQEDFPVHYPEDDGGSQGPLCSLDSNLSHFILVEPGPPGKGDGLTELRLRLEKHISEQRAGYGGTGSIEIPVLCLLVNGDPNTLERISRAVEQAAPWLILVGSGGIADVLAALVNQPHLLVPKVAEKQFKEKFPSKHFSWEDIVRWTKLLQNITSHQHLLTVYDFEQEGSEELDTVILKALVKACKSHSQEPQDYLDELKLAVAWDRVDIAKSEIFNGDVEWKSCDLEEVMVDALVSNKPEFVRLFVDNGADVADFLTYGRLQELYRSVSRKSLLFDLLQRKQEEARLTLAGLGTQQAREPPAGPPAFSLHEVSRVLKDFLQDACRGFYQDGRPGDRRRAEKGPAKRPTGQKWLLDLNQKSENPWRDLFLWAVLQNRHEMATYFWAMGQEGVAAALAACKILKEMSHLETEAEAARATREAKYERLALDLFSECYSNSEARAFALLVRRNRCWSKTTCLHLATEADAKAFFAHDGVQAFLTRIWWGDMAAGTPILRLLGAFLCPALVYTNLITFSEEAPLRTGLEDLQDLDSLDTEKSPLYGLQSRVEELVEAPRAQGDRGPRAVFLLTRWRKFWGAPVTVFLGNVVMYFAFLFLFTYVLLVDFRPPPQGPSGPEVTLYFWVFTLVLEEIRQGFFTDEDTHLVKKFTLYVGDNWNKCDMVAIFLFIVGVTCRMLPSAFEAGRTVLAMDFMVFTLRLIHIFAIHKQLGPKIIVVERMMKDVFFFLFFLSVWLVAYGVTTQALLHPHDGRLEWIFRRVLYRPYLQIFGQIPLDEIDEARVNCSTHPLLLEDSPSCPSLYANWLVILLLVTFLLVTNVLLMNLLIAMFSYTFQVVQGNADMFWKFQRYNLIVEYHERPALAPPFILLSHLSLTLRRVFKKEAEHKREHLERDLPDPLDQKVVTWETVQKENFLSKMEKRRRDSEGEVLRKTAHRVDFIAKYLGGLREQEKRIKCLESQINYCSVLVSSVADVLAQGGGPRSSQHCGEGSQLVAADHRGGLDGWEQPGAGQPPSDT
As to the kind of experiment: FLIPR membrane potential dye screening assay, ATP-stimulated, TRPM5-transfected HEK293 cells. The note with it: maximum percent inhibition at concentrations between 10 μM and 100 μM; HEK293 cells with human TRPM5; 10 μM ATP; versus negative control wells. It is filed as cell-based. Here is the method: Modulation of the activity of human taste receptor proteins was measured in live cells on a fluorescent imaging plate reader (FLIPR). The basis of the assay (shown in FIG. 1) is the calcium-dependent activation of the ion channel which occurs via by activation of a G-protein coupled receptor (GPCR). GPCR activation by an appropriate agonist causes a transient increase in intercellular Ca^2+ ion concentration which in turn causes the ion channel to open, allowing an influx of Na^+ ions. This influx leads to a change in the membrane potential of the cell, which can be monitored as a change in the fluorescent signal from voltage-dependent (membrane potential) fluorescent dyes.
A schematic representation of the assay is shown in FIGS. 2(A) and 2(B), where traces of fluorescent response versus time are shown for cells transfected with a plasmid encoding human TRPM5 or cells containing sham plasmid controls.
For the screening assay, the human TRPM5 gene was cloned, HEK293 cells were transfected with a plasmid containing the gene, and a stable, high expression clone was chosen for the screen. Cells were grown in standard media at 37° C. The day before screening, the cells were removed from flasks and added to 384 well clear bottom plates (12K cells in 20 μL/well). On the assay day, 20 μL of membrane potential dye (Part No. R8123, Molecular Devices Corp.) was added to the cells and dye was allowed to be taken up, i.e., loaded, into the cells for 1 hr at 37° C. […] The assay was started by addition of 10 μL of solution from the compound plate into the cell plate. During this process, continuous fluorescent recordings were made simultaneously for all wells. After addition of the compound solution, the tips were automatically washed and 10 μL of a stimulation solution of 60 μM ATP (an agonist for an endogenous purinurgic GPCR), was added to all wells of the cell plate (to give a final concentration of 10 μM ATP). The height of the response was calculated and percent inhibition values, versus negative control wells, was calculated for the test samples.
(§1) Unless otherwise indicated, the data in Table 1 were determined using the assays described above, providing maximum percent inhibition data at concentrations between 10 μM and 100 μM.

For data set [1], the system named is GPCR-mediated calcium activation step. The data set can be described thus: Calcium counterscreen (calcium sensitive dye, ATP stimulation, same cells). It is filed as cell-based. The note with it: maximum percent inhibition at concentrations between 10 μM and 100 μM, Calcium3 dye. On the procedure: Two counterscreen assays were run on separate cell plates utilizing the same cells as described above. In the calcium counterscreen, the cells were loaded with a calcium sensitive dye (Calcium3 Dye, Part no. 8090, Molecular Devices Corp.) and stimulated by ATP to check for compounds that block the GPCR-mediated calcium activation step. In the KCl counterscreen, cells were stimulated with 120 mM KCl (to give a final concentration of 20 mM KCl) instead of ATP to check for compounds that inhibit the membrane potential response by virtue of being non-specific ion channel blockers.
as §1
On the technique in general: The purpose of a counterscreen is to sort out artefacts and off-target activity.

The structures appear in SMILES notation.

Regarding `COC(=O)c1ccc(-c2nc(-c3ccccc3)c(-c3ccccc3)[nH]2)cc1` [Example 1, methyl4-(4,5-diphenyl-1H-imidazol-2-yl)benzoate], the “TRPM5 Activity (maximum percent inhibition)” value at human TRPM5 amounted to 79%. The “Calcium Counterscreen (maximum percent inhibition)” value in data set [1] came to 0%.
For the molecule `OCc1ccc(-c2nc(-c3ccccc3)c(-c3ccccc3)[nH]2)cc1` [Example 2, [4-(4,5-diphenyl-1H-imidazol-2-yl)phenyl]methanol], the melting point was determined as 50 °C. For the same molecule, the “TRPM5 Activity (maximum percent inhibition)” value on human TRPM5 turned out to be 50%. The “Calcium Counterscreen (maximum percent inhibition)” value in data set [1] worked out at 0%.
Consider `Nc1ccc(-c2nc(-c3ccccc3)c(-c3ccccc3)[nH]2)cc1` [Example 3, 4-(4,5-diphenyl-1H-imidazol-2-yl)aniline], for which the “TRPM5 Activity (maximum percent inhibition)” value on human TRPM5 amounted to 42%. Besides, the “Calcium Counterscreen (maximum percent inhibition)” value in data set [1] is listed as 0%.
The corresponding values for `Oc1ccc(-c2nc(-c3ccccc3)c(-c3ccccc3)[nH]2)cc1` [Example 4, 4-(4,5-diphenyl-1H-imidazol-2-yl)phenol] are 51% and 0%.
Regarding `COC(=O)Nc1ccc(-c2nc(-c3ccccc3)c(-c3ccccc3)[nH]2)cc1` [Example 5, methyl4-(4,5-diphenyl-1H-imidazol-2-yl)phenylcarbamate], at human TRPM5, the “TRPM5 Activity (maximum percent inhibition)” value came out at 19%. Moreover, the “Calcium Counterscreen (maximum percent inhibition)” value in data set [1] was 0%.
In the case of `CC(=O)Nc1ccc(-c2nc(-c3ccccc3)c(-c3ccccc3)[nH]2)cc1` [Example 6, N-[4-(4,5-diphenyl-1H-imidazol-2-yl)phenyl]acetamide], the “TRPM5 Activity (maximum percent inhibition)” value on human TRPM5 is 29%. The “Calcium Counterscreen (maximum percent inhibition)” value in data set [1] is 0%.
Consider `N#Cc1ccc(-c2nc(-c3ccccc3)c(-c3ccccc3)[nH]2)cc1` [Example 7, 4-(4,5-diphenyl-1H-imidazol-2-yl)benzonitrile], for which the “TRPM5 Activity (maximum percent inhibition)” value at human TRPM5 was 0%. For the same molecule, the “Calcium Counterscreen (maximum percent inhibition)” value in data set [1] is listed as 0%.
For the molecule `CS(=O)(=O)NCc1ccc(-c2nc(-c3ccccc3)c(-c3ccccc3)[nH]2)cc1` [Example 8, N-[4-(4,5-diphenyl-1H-imidazol-2-yl)benzyl]methanesulfonamide], at human TRPM5, the “TRPM5 Activity (maximum percent inhibition)” value worked out at 90%. In data set [1], the “Calcium Counterscreen (maximum percent inhibition)” value was determined as 0%.
On to `O=C(O)c1ccc(-c2nc(-c3ccccc3)c(-c3ccccc3)[nH]2)cc1` [Example 9, 4-(4,5-diphenyl-1H-imidazol-2-yl)benzoic acid], for which the “TRPM5 Activity (maximum percent inhibition)” value at human TRPM5 came out at 60%. Further, in data set [1], the “Calcium Counterscreen (maximum percent inhibition)” value turned out to be 0%.
For the molecule `O=[N+]([O-])c1ccc(-c2nc(-c3ccccc3)c(-c3ccccc3)[nH]2)cc1` [Example 10, 2-(4-nitro-phenyl)-4,5-diphenyl-1H-imidazole], on human TRPM5, the “TRPM5 Activity (maximum percent inhibition)” value amounted to 100%. The “Calcium Counterscreen (maximum percent inhibition)” value in data set [1] stood at 0%.
